Converted amounts (≈) assume the structure as drawn. Where two headings read alike, the source gives them in different places. Each block holds one compound with its values, some of them ahead of it.
How the values were obtained:
[1] = Solution stability / decomposition studies
Source text: (§1) Figwe 3 Chemical stnruu of disulphonated aluminium phthalocyamne.

solid tumour models = test: Activity in solid tumour models; format: in vivo; settings: several solid tumour models
Source text: (§2) Brsh Jowbnl d Cancer ( ) 72, 210-218 ? […] Figwe 3 Chemical stnruu of disulphonated aluminium phthalocyamne.

[2] = cited from earlier work
Aqueous solubility = settings: for aqueous solubility (in words): water / aqueous solution
[3] = Solubility in co-solvents, non-aqueous solvents and solubilising vehicles
Source text: as §2

[4] = Preclinical toxicology studies
Source text: as §1

[5] = Clinical pharmacokinetics in phase I trial; format: in vivo, human
Source text: as §2

Murine anti-tumour tests = format: in vivo
Source text: as §2

gliomas = test system: gliomas; set-up: method as in Stevens and Newlands, 1993; settings: daily for five consecutive days; ref Stevens and Newlands, 1993; cited from earlier work
B16 melanoma = test: Anti-tumour activity against B16 melanoma; format: in vivo
Source text: as §2

colon 26 = test: Anti-tumour activity against colon 26 tumour; format: in vivo
Source text: as §2

DNA polymerase-alpha = test system: DNA polymerase-alpha; set-up: method as in Bucknall et al., 1973; Taguchi et al., 1978; settings: ref Bucknall et al., 1973; Taguchi et al., 1978; cited from earlier work
[6] = cited from earlier work; for maximum tolerated dose (MTD): ref Judson et al., 1989
P388 leukaemia = test: Anti-tumour activity against P388 leukaemia; format: in vivo
Source text: as §2

L1210 leukaemia = test: Anti-tumour activity against L1210 leukaemia; format: in vivo
Source text: as §2

[7] = Stability of formulated product (shelf-life, reconstituted solution); settings: for pH of reconstituted solution: lyophilised product reconstituted with water
Source text: as §2

[8] = set-up: method as in de Vries et al., 1993; settings: aqueous solution; ref de Vries et al., 1993; cited from earlier work
[9] = phase I studies; ref Sessa et al., 1991; cited from earlier work
[10] = In vivo anti-tumour activity
Source text: as §2

[11] = test system: acid or alkaline phosphatase; test: Incubation of prodrug with phosphatase; format: biochemical; settings: incubated with acid or alkaline phosphatase
Source text: as §2

LOX amelanotic melanoma = test system: LOX amelanotic melanoma; set-up: method as in Waud et al., 1992; settings: xenograft in athymic mice; ref Waud et al., 1992; cited from earlier work
MX-1 mammary carcinoma = test system: MX-1 mammary carcinoma; set-up: method as in Waud et al., 1992; settings: xenograft in athymic mice; ref Waud et al., 1992; cited from earlier work
NCI-H82 = test system: NCI-H82; set-up: method as in Waud et al., 1992; settings: xenograft in athymic mice; ref Waud et al., 1992; cited from earlier work
[12] = Preliminary murine toxicological study; format: in vivo; settings: PET solvent system formulation
Source text: as §2

[13] = In vitro anti-tumour activity; format: cell-based
Source text: as §2

[14] = Compatibility and adsorption studies with administration sets; format: physicochemical
Source text: as §2

[15] = Phase I/II clinical trials: toxicity; format: in vivo, human; settings: phase I trial
Source text: as §2

[16] = data from the drug's discoverers; ref Pettit et al., 1982; cited from earlier work
[17] = set-up: method as in Torres-Labandeira et al., 1991; settings: 40% aqueous solution of HPCD; ref Torres-Labandeira et al., 1991; cited from earlier work

Compound: CC(C)NC(=O)OCc1c(COC(=O)NC(C)C)c(-c2ccc(Cl)c(Cl)c2)n2c1CCC2 [NSC-278214, reference compound]
half-life ([1]; 66% aqueous acetone at 25 C): around 5 mi | anti-tumour activity (solid tumour models): activity | drug decomposed ([2]; in 2 h, 10% fat emulsion (Intralipid), 0.7 mg ml-1, 1% DMA, 5% Cremophor EL, ref El-Sayed and Repta 1983): about 10% | aqueous solubility (in words) (Aqueous solubility): negligible

solubility in DMSO relative to mitozolomide ([3]; DMSO): less soluble | bioavailability ([5]; human, in vivo, patients, 200 mg m2, oral vs i.v., read-out: bioavailability of oral formulation): ~100% | dose dependency in the pharmacokinetics ([5]; oral formulation, dose escalations): no evidence of dose dependency | absorption of oral formulation ([5]; patients, oral): rapid
Compound: Cn1nnc2c(C(N)=O)ncn2c1=O [Temozolomide]
toxicity relative to mitozolomide ([4]; in vivo): ess toxi | potency relative to mitozolomide (Murine anti-tumour tests): less potent | activity against gliomas (gliomas): evident

Compound: CO[C@@H](/C(C)=C/C=C/C(C)=C/c1coc(C)n1)[C@@H](C)[C@@H]1C[C@H](O)[C@@]2(C)O[C@@H]2/C=C/[C@@H](C)[C@H]2C[C@H](CC(=O)O2)C[C@@H]2O[C@H]2C(=O)O1 [Rhizoxin]
solubility in t-butanol and t-butanol-water mixtures ([3]; t-butanol, t-butanol-water): excellent | increase in degradation in presence of light vs protected from light ([1]; pH 5.6): approximately 2 -fold | solubility (physchem): 12 µg/mL (≈ 0.0192 mM)

Compound: C[C@@]1(CO)[C@H](O)CC[C@@]2(C)[C@H]1CC[C@H]1C[C@@H]3C[C@@]12CC[C@]3(O)CO [Aphidicolin, reference compound]
anti-tumour activity (B16 melanoma): observed | anti-tumour activity (colon 26): observed | effect on DNA polymerase (DNA polymerase-alpha): inhibit | solubility (physchem): ~250 µg/mL (≈ 0.739 mM)

Compound: NC(=O)c1ncn2c(=O)n(CCCl)nnc12 [Mitozolomide, mitozolomide, reference compound]
toxicity for which trials were terminated ([6]; phase I and phase II clinical trials): unpredictable throm- bocYtopenia

Compound: CN(CO)c1nc(N(C)CO)nc(N(C)CO)n1 [Trimelamol, N2,N4,N6-trihydroxymethyl-N2,N4,N6-trimethylmelamine]
solubility ([3]; 95% ethanol): ~45000 µg/mL (≈ 174 mM) | solubility ([3]; DMA): ~375000 µg/mL (≈ 1450 mM) | solubility ([3]; propylene glycol): ~15000 µg/mL (≈ 58.1 mM) | pH of maximum stability ([1]; HPLC, 25C, pH 3-12.5): 10-11 | half-life ([1]; buffer, pH 10): > 30 h | anti-tumour activity (B16 melanoma): active | anti-tumour activity (colon 26): active | anti-tumour activity (P388 leukaemia): active | anti-tumour activity (L1210 leukaemia): active | t/2 of reconstituted freeze-dried formulation ([2]; 50% aqueous PEG 3400, 30 mg ml-1, not further diluted, ref Gibson et al. (1990)): 46.3 h | solubility (physchem; water): 10000 µg/mL (≈ 38.7 mM) | maximum tolerated dose (MTD) ([6]; single administration): 2400 mgm-2 | maximum tolerated dose (MTD) ([6]; thrice-daily schedule): 1000 mg m2

Compound: ClCC[N+]12CC[N+](CCCl)(CC1)C2.O=C([O-])/C=C\C(=O)O.O=C([O-])/C=C\C(=O)O [Dabis maleate, 1,4-bis (2'-chloroethyl)-1,4-diazabicyclo-[2.2.1] heptane dimaleate]
recommended phase II dose ([6]; 6 h infusion for 6 weeks followed by 3 week drug vacation, ref Verweij et al., 1992): 500 mg m2 week-' | recommended dose for phase II trials ([6]; once every 3 weeks, ref van der Burg et al., 1991): 750 mg m-2 | dose-limiting toxicity ([6]; phase I, once every 3 weeks, ref van der Burg et al., 1991): neurotoxicity | toxicity of prolonged infusion ([6]; prolonged infusion, ref Verweij et al., 1992): neurotoxicity consisting of parasthesia and ataxia

Compound: Cn1c(/C=C/CO)c(CO)c2c1C(=O)C=C(N1CC1)C2=O [E.O.9]
time reconstituted solution is stable ([7]; 0.5 mg ml-1 in 0.9% sodium chloride, room temperature): at least 24 h | pH of maximum stability [8]: around 9.5 | solubility (physchem): 200 to 500 µg/mL (≈ 0.694 to 1.73 mM) | aqueous solubility (in words) (Aqueous solubility): lmited

Compound: CCN(CC)c1ccc2cc(C(=O)Nc3ccc4[nH]c(C(=O)N5C[C@@H](CCl)c6c5cc(OC(=O)Nc5ccccc5)c5[nH]cc(C)c65)cc4c3)oc2c1 [Carzelesin]
solubility in common pharmaceutically acceptable solvents [3]: very low | time drug is stable in PET vehicle ([7]; stored at -30C, PEG 400/polysorbate 80/ethanol): at least 1 year

Compound: CCCCCCCCCCCCCCCCCCOCC1(COP(=O)([O-])OCC[N+](C)(C)C)CCCO1 (centres unmarked) [SRI 62-834]
time formulation is chemically and physically stable ([7]; Intralipid formulation): 3 months | local tolerance of simple aqueous formulations ([4]; simple aqueous formulations): irritation at the site of injection | solubility in aqueous systems (Aqueous solubility; at 20C): 50 % (w/ v)

Compound: CS(=O)(=O)OCCN(CCCl)c1ccc(C(=O)N[C@@H](CCC(=O)O)C(=O)O)cc1 [Springer prodrug]
time until degradation apparent ([7]; lyophilised material at 20-25C): ≤ 2 weeks | time lyophilised material is stable ([7]; stored at 4C): up to 1 year

Compound: C[C@@]1(CO)[C@H](O)CC[C@@]2(C)[C@H]1CC[C@H]1C[C@@H]3C[C@@]12CC[C@]3(O)COC(=O)CN.Cl [aphidicolin glycinate]
pH of maximal stability ([1]; pH 2.0-9.0 at 40-C): 4.5 | time diluted solution is stable ([7]; 1 mg ml-1 in 5% dextrose or 0.9% sodium chloride injection, HPLC): more than 24 h | time reconstituted solution is stable ([7]; 100 mg ml-1 in water for injection): at least 24 h | anti-tumour activity (B16 melanoma): active | anti-tumour activity (P388 leukaemia): active | dose at which toxicity was dose limiting ([6]; 1 h infusion for five consecutive days every 3 weeks, ref Sessa et al., 1991): 2250 mg m-2 | dose at which toxicity was dose limiting ([6]; 24 h infusion every 3 weeks, ref Sessa et al., 1991): 4500 mg m-2 | dose-limiting toxicity ([6]; both phase I studies, ref Sessa et al., 1991): Local toxicity | pharmacologically active levels [9]: had not been achieved | solubility of hydrochloride salt of the glycine amino group (Aqueous solubility; hydrochloride salt): greater than 100 mgnml'

Compound: COc1ccc(/C=C\c2cc(OC)c(OC)c(OC)c2)cc1OP(=O)(O)O [phosphate ester]
stability in aqueous solutions (in words) ([1]; aqueous solutions): adequate | in vivo activity [10]: inactive | release of parent molecule [11]: released the parent mokcule | aqueous solubility (in words) (Aqueous solubility): adequate

Compound: CNC(=O)OCc1nc(SC)n(C)c1COC(=O)NC.Cl [Carmethizole hydrochloride, carmethizole hydrochloride]
pH of maximal stability ([1]; about pH 1 or lower): ~1 | teA (time to 10% decomposition) ([7]; freeze-dried product reconstituted with water for injection, solution pH 2.8): ~5.4 h | pH of reconstituted solution [7]: 2.8 | toxicity observed ([4]; preclinical toxicology studies): signifiant cardiotoxicity | anti-tumour activity (LOX amelanotic melanoma): active | anti-tumour activity (MX-1 mammary carcinoma): active | anti-tumour activity (NCI-H82): active | solubility of the hydrochloride salt (Aqueous solubility; hydrochloride salt): greater than 500 mg ml- 1

Compound: COc1ccc(/C=C\c2cc(OC)c(OC)c(OC)c2)cc1O [Combretastatin A4]
local tolerance [12]: severe irritation at the injection site | in vitro anti-tumour activity [13]: excellent | in vivo activity [10]: no significant

Compound: CCC/C=C/C=C/C(=O)O[C@H]1/C(=C/C(=O)OC)C[C@H]2C[C@H]([C@@H](C)O)OC(=O)C[C@H](O)C[C@@H]3C[C@H](OC(C)=O)C(C)(C)[C@](O)(C[C@@H]4C/C(=C/C(=O)OC)C[C@H](/C=C/C(C)(C)[C@]1(O)O2)O4)O3 [bryostatin 1]
percentage of ethanol below which the drug precipitated ([3]; ethanolic solutions at predicted formulation concentrations): below 50% | adsorption onto administration set surfaces ([14]; PTFE-lined sets, ethanol concentration below 50%): significant | adsorption onto administration set surfaces ([14]; plastic not PTFE-lined (e.g. PVC)): exten- sive adsorption | local toxicity thought to be associated with high ethanol concentration ([15]; ethanol solution): phlebitis | major toxicity ([15]; with or without in-line dilution): general myalgia | aqueous solubility (in words) [16]: lmited

Compound: O=C1N[C@H]2[C@H](O)[C@H](O)[C@@H](O)[C@H](O)[C@@H]2c2cc3c(c(O)c21)OCO3 [Pancratistatin]
solubility ([3]; aqueous solubilisation with complexing agent): 1000 µg/mL (≈ 3.07 mM) | solubility ([3]; solubility in a range of solvents): < 400 µg/mL | pH of reconstituted solution [7]: 6.3 | solubility in hydroxypropyl-beta-cyclodextrin solution [17]: approximately 1.2 mg ml-'

Compound: COc1ccc(O)cc1 [4-Hydroxyanisole]
toxicity observed ([15]; intravenous, ethanol vehicle): Hepatotoxicity was observed

Reference: publication PMC2034157, “CRC/EORTC/NCI Joint Formulation Working Party: experiences in the formulation of investigational cytotoxic drugs” (British Journal of Cancer, 1995)
